Test results as given in patent US20260216057A1, “PHARMACEUTICAL COMPOSITIONS FOR HERPES VIRUS” (priority 2022, published 2026).

Key:
plasma protein = settings: cited from earlier work
[1] = Injection site observation in pritelivir PK studies (Examples 1-4); assay type: in vivo, rat, monkey, dog; settings: SC pritelivir depot formulations, Examples 1-4, 3 species
Experimental: Male Sprague Dawley (SD) rats with ~300 g body weight (ages 6-8 weeks) were used for the pharmacokinetic study. The animals had free access to food and water. The pritelivir suspensions described above were administered via sub-cutaneous injection to each animal group (n=3) with a dosing volume of 3.33 mL/kg to achieve 33.33 mg/kg and 166.67 mg/kg doses.
Male SD rats with 230-250 g body weight, ages 6-8 weeks were used for the rat PK study. The animals had free access to food and water. The prepared suspension was administered via subcutaneous injection to each animal group (n=3) with a dosing volume of 3.33 mL/kg to achieve a 10 mg/kg dose.
Male non-naïve Cyno Monkeys with −5 kg body weight was used for the monkey PK study. The animals had free access to food and water. The prepared suspension was administered via subcutaneous injection to each animal group (n=3) with a dosing volume of 3.33 mL/kg to achieve a 10 mg/kg dose.
Male non-naïve beagles were used for the dog PK study. The animals had free access to food and water. The prepared suspension was administered via subcutaneous injection to each animal group (n=3) with a dosing volume of 2 mL/kg to achieve a 10 mg/kg dose.

[2] = Injection site observation in Example 10-12 Compound 1 PK studies; assay type: in vivo, rat, monkey, dog; settings: SC Compound 1 depot formulations, Examples 10-12, 3 species
Experimental: The Compound 1 suspension described above was administered via sub-cutaneous injection to each animal group (n=3) with a dosing volume of 3.33 mL/kg to achieve a 10 mg/kg dose.
Male non-naïve Cyno Monkeys with ~4-6 kg body weight were used for the monkey PK study. The animals had free access to food and water. The prepared suspension was administered via subcutaneous injection to each animal group (n=3) with a dosing volume of 3.33 mL/kg to achieve a 10 mg/kg dose.
Male non-naïve beagles with ~10 kg body weight were used for the dog PK study. The animals had free access to food and water. The prepared suspension was administered via subcutaneous injection to each animal group (n=3) with a dosing volume of 2 mL/kg to achieve a 10 mg/kg dose.

[3] = Example 17: Compound 1 (Form C) microsuspension and nanosuspension SC and IM PK study in rat; assay type: in vivo, male Sprague Dawley rats; settings: for prolonged exposure for (length of the study): 20 mg/animal (~80 mg/kg), micro- and nano-suspensions (Form C), both formulations
Experimental: The LC-MS methodology and conditions used to analyse Compound 1 in rat plasma samples from the PK study described in Example 17 are given in Table 10.
An aqueous microsuspension of crystalline Compound 1 free form (crystalline Form C) in a 20 mg/mL PVP K30, 10 mg/mL poloxamer 188 and 50 mg/mL mannitol vehicle at a concentration of 200 mg/mL was prepared as follows: • 1) Crystalline Compound 1 (Form C) was jet milled to obtain microparticles (Dv90<10 μm). • 2) Jet milled material was dispersed in 20 mg/ml PVP K30+10 mg/ml Poloxamer 188+50 mg/ml mannitol to obtain a homogeneous suspension. • 3) The suspension was subjected to freeze drying to obtain a freeze-dried powder. • 4) Appropriate amounts of freeze-dried powder (based on assay) were weighed and added to water to obtain a 200 mg/ml suspension. • 5) The mixture was stirred for 5 minutes. • 6) The final dosing formulation was a homogenous white cloudy suspension.
An aqueous nano-suspension of crystalline Compound 1 free form (crystalline Form C) in a 20 mg/mL PVP K30, 10 mg/mL poloxamer 188 and 50 mg/mL mannitol vehicle at a concentration of 200 mg/mL was prepared as follows: • 1) 20 mg/mL crystalline Compound 1 (Form C) was dispersed into a solution of 2 mg/mL PVP K30 1.0 mg/mL poloxamer 188 and 5 mg/mL mannitol • 2) The suspension was subjected to high pressure homogenizer until the size was around 1 μm. • 3) After particle size reduction, the suspension was subjected to freeze drying to obtain a freeze-dried powder. • 4) The freeze-dried powder was reconstituted with water to obtain a 100 mg/mL suspension. • 5) The suspension was wet milled (10:1 0.1 mm zirconium oxide milling beads: Compound 1) at 900 rpm for 600 minutes to reduce particle size to nanosized particles (Dv90<200 nm). • 6) This nanosuspension was subjected to freeze drying to obtain a freeze-dried powder. • 7) Appropriate amounts of freeze-dried powder (based on assay) were weighed and added to water to obtain a 200 mg/ml suspension. • 8) The mixture was stirred for 10 minutes. • 9) The final dosing formulation was a homogenous white cloudy suspension.
Male Sprague Dawley (SD) rats with ~230-250 g body weight (aged 6-8 weeks) were used for the pharmacokinetic study. The animals had free access to food and water. The Compound 1 solution described above was administered via sub-cutaneous or intra-muscular injection to each animal group (n=3) with a dosing volume of 0.1 mL/animal (~0.4 mL/kg) to achieve a 20 mg/animal dose (~80 mg/kg).
At each time point, approximately 150 μL whole blood was collected in a K2EDTA tube via the jugular vein. Blood samples were put on ice and centrifuged at 2000 g for 5 min to obtain a plasma sample within 15 minutes. Plasma samples were stored at approximately −70° C. until analyzed by LC-MS.

[4] = Example 7: Compound 1 aqueous suspension SC PK study in rat; assay type: in vivo, male Sprague Dawley rats; settings: aqueous suspension (Form A), 10 mg/kg
Experimental: The LC-MS methodology and conditions used to analyse the helicase-primase inhibitor Compound 1 in plasma samples from the sub-cutaneous injection PK studies (Examples 7 and 10-12) are described in Table 3 and Table 4. An aqueous suspension of crystalline Compound 1 (Form A) was prepared in a 0.9% NaCl+0.5% polysorbate 80 vehicle at a concentration of 3.0 mg/mL as described in Example 2. The suspension was then dosed to male SD rats at 10 mg/kg according to the Example 2 animal dosing method.

[5] = tested on: carbonic anhydrase I and/or carbonic anhydrase II; experiment: Carbonic anhydrase inhibition; assay type: biochemical
Excerpt: Carbonic anhydrase inhibition can be measured using a carbonic anhydrase I assay as described in Katritzky et al. (J. Med. Chem. 1987, 30:2058) and a carbonic anhydrase […] assay as described in lyer et al. (J. Biomol. Screen 2006, 11:782).

prolonged exposure for (length of the study) ([3]; intramuscular)	prolonged exposure for (length of the study) ([3]; subcutaneous)	prolonged exposure out to (length of the study) [4]	SMILES	protein binding (plasma protein)	adverse reactions at the injection sites [1]	adverse reactions at the injection sites [2]	plasma levels, intramuscular compared with subcutaneous injection ([3]; 20 mg/animal, micro- and nano-suspensions)	plasma levels, nanosuspension compared with microsuspension ([3]; intramuscular, 20 mg/animal)	adverse reactions at the injection sites ([3]; intramuscular, micro- and nano-suspensions)	plasma levels, nanosuspension compared with microsuspension ([3]; subcutaneous, 20 mg/animal, throughout the test period)	adverse reactions at the injection sites ([3]; subcutaneous, micro- and nano-suspensions)	carbonic anhydrase inhibition [5]
			Cc1nc(N(C)C(=O)Cc2ccc(-c3ccccn3)cc2)sc1S(N)(=O)=O [pritelivir, N-methyl-N-(4-methyl-5-sulfamoyl-1,3-thiazol-2-yl)-2-[4-(pyridin-2-yl)phenyl]acetamide]	97-98%	no adverse reactions observed							
at least 600 hours	at least 600 hours	at least 144 hours	Cc1nc(N2CCCN(c3ccc(-c4cc(F)ccc4F)cc3)C2=O)sc1S(N)(=O)=O [Compound 1, 2-(3-(2′,5′-difluoro-[1,1′-biphenyl]-4-yl)-2-oxotetrahydropyrimidin-1(2H)-yl)-4-methylthiazole-5-sulfonamide]			no adverse reactions observed	plasma levels were higher than those achieved by these formulations when administered by subcutaneous injection	nanosuspension provided higher plasma levels than the microsuspension	no adverse reactions observed	nanosuspension provided higher plasma levels than the microsuspension	no adverse reactions observed	no or low levels of carbonic anhydrase inhibition
